Laboratory results: patent US20150064763A1, “Method for Producing Hydrocarbons and Oxygen-containing Compounds from Biomass” (SWEDISH BIOFUELS AB, priority 2003, published 2015)

Molecular target: formation of C3-C5 alcohols
Assay: Inhibition of C3-C5 alcohols formation in alcohol fermentation by yeast
Type: cell-based
Details: for inhibition constant: formation of C3-C5 alcohols in alcohol fermentation; for effect on formation of C3-C5 alcohols: present in the substrate in addition to valine, leucine and isoleucine
Procedure: Formation of C3-C5 alcohols is a result of active functioning of the process of deamination of amino acids in the yeast cells with formation of free ammonia. […] The yield of C3-C5 alcohols reached 3.1% of ethanol when pure valine, isoleucine, and leucine were the sole source of nitrogen nutrition of the yeast in the inventive fermentation process. Moreover, the maximum formation of C3-C5 alcohols in the inventive process of alcohol fermentation occurred at pH=6.0 of the medium and at 38° C. (standard conditions of alcohol fermentation pH 4.5-5.5; temperature 28-34° C.).

[1] = system with leucine as amino acid

Compound | inhibition constant [1] [mg/L] | effect on formation of C3-C5 alcohols | inhibition constant (system with valine as amino acid) [mg/L]
N.N.O=S(=O)(O)O [ammonium sulphate] | 750 | – | –
NC(=O)C[C@H](N)C(=O)O [asparagine] | 730 | inhibits formation of C3-C5 alcohols | 650
N [ammonium ions] | – | inhibits formation of C3-C5 alcohols | –
